Measurements taken from patent US11446287B2, “Compounds and methods for EP300 or CBP modulation and indications therefor” (Opna Immuno-Oncology SA, priority 2019, dated 2022).

What follows are compounds tested against T1, Recombinant human CBP containing the bromodomain (CBP-BD (1043-1159)) (Homo sapiens, UniProt Q92793) (assay: CBP Alphascreen binding assay). Conditions: read-out: CREBBP (CBP) IC50.
T1 construct: Recombinant human CBP bromodomain (CBP-BD (1043-1159)); made in house; host or cells: E. coli BL21-CodonPlus (DE3), modified pET vector
T1 sequence (Q92793 1081-1197): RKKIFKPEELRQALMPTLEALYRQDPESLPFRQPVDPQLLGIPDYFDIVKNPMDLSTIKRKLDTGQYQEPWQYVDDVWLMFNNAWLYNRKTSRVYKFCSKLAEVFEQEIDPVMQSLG
Outline: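 Buffer: 50 mM HEPES pH 7.5, 50 mM NaCl, 0.01% BSA, 0.01% Triton X-100, 2 mM DTT. The signal was normalised to plate controls and fitted with a four-parameter curve to give IC50.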

Compound	IC50 [nM]
Cc1noc(C)c1-c1cnc2c(c1)c(-c1c(Cl)cc(C(=O)O)cc1OC(C)C)cn2C1CCOCC1 [P-0372, 3-chloro-4-(5-(3,5-dimethylisoxazol-4-yl)-1-(tetrahydro-2H-pyran-4-yl)-1H-pyrrolo[2,3-b]pyridin-3-yl)-5-isopropoxybenzoic acid]	0.1 to 1000
CCOc1cc(C(=O)O)nc(OCC)c1-c1cn(C2CCOCC2)c2ncc(-c3c(C)noc3C)cc12 [P-0373, 5-(5-(3,5-dimethylisoxazol-4-yl)-1-(tetrahydro-2H-pyran-4-yl)-1H-pyrrolo[2,3-b]pyridin-3-yl)-4,6-diethoxypicolinic acid]	0.1 to 1000
CCOc1cc(C(=O)O)c(F)c(OCC)c1-c1cn(C2CCOCC2)c2ncc(-c3c(C)noc3C)cc12 [P-0374, 4-(5-(3,5-dimethylisoxazol-4-yl)-1-(tetrahydro-2H-pyran-4-yl)-1H-pyrrolo[2,3-b]pyridin-3-yl)-3,5-diethoxy-2-fluorobenzoic acid]	0.1 to 1000
CCOc1cc(C(=O)O)c(F)cc1-c1cn(C2CCOCC2)c2ncc(-c3c(C)noc3C)cc12 [P-0375, 4-(5-(3,5-dimethylisoxazol-4-yl)-1-(tetrahydro-2H-pyran-4-yl)-1H-pyrrolo[2,3-b]pyridin-3-yl)-5-ethoxy-2-fluorobenzoic acid]	0.1 to 1000
CCOc1nc(C(=O)O)ccc1-c1cn(C2CCOCC2)c2ncc(-c3c(C)noc3C)cc12 [P-0376, 5-(5-(3,5-dimethylisoxazol-4-yl)-1-(tetrahydro-2H-pyran-4-yl)-1H-pyrrolo[2,3-b]pyridin-3-yl)-6-ethoxypicolinic acid]	0.1 to 1000
CCOc1cc(C(=O)O)c(F)cc1-c1cn(-c2ccccc2F)c2ncc(-c3c(C)noc3C)cc12 [P-0377, 4-(5-(3,5-dimethylisoxazol-4-yl)-1-(2-fluorophenyl)-1H-pyrrolo[2,3-b]pyridin-3-yl)-5-ethoxy-2-fluorobenzoic acid]	0.1 to 1000
Cc1noc(C)c1-c1cnc2c(c1)c(-c1ccc(C(=O)O)cc1OC(F)(F)F)cn2C1CCC1 [P-0378, 4-(1-cyclobutyl-5-(3,5-dimethylisoxazol-4-yl)-1H-pyrrolo[2,3-b]pyridin-3-yl)-3-(trifluoromethoxy)benzoic acid]	0.1 to 1000
Cc1noc(C)c1-c1cnc2c(c1)c(-c1ccc(C(=O)O)cc1OC1CC1)cn2C1CCOCC1 [P-0379, 3-cyclopropoxy-4-(5-(3,5-dimethylisoxazol-4-yl)-1-(tetrahydro-2H-pyran-4-yl)-1H-pyrrolo[2,3-b]pyridin-3-yl)benzoic acid]	0.1 to 1000
Cc1noc(C)c1-c1cnc2c(c1)c(-c1c(Cl)cc(C(=O)O)cc1OC(F)(F)F)cn2C(C1CCC1)C1CCC1 [P-0380, 3-chloro-4-(1-(dicyclobutylmethyl)-5-(3,5-dimethylisoxazol-4-yl)-1H-pyrrolo[2,3-b]pyridin-3-yl)-5-(trifluoromethoxy)benzoic acid]	0.1 to 1000
Cc1noc(C)c1-c1cnc2c(c1)c(-c1c(Cl)cc(C(=O)O)cc1OC1CC1)cn2C1CCOCC1 [P-0381, 3-chloro-5-cyclopropoxy-4-(5-(3,5-dimethylisoxazol-4-yl)-1-(tetrahydro-2H-pyran-4-yl)-1H-pyrrolo[2,3-b]pyridin-3-yl)benzoic acid]	0.1 to 1000
Cc1noc(C)c1-c1cnc2c(c1)c(-c1ccc(C(=O)O)cc1OC(F)(F)F)cn2C1CCCC1 [P-0382, 4-(1-cyclopentyl-5-(3,5-dimethylisoxazol-4-yl)-1H-pyrrolo[2,3-b]pyridin-3-yl)-3-(trifluoromethoxy)benzoic acid]	0.1 to 1000
Cc1noc(C)c1-c1cnc2c(c1)c(-c1ccc(C(=O)O)cc1OC(F)(F)F)cn2C1(C)CCOC1 (stereo not shown) [P-0383, 4-(5-(3,5-dimethylisoxazol-4-yl)-1-(3-methyltetrahydrofuran-3-yl)-1H-pyrrolo[2,3-b]pyridin-3-yl)-3-(trifluoromethoxy)benzoic acid]	0.1 to 1000
Cc1noc(C)c1-c1cnc2c(c1)c(-c1ccc(C(=O)O)cc1OC(F)(F)F)cn2-c1cnc(C2CC2)nc1 [P-0384, 4-(1-(2-cyclopropylpyrimidin-5-yl)-5-(3,5-dimethylisoxazol-4-yl)-1H-pyrrolo[2,3-b]pyridin-3-yl)-3-(trifluoromethoxy)benzoic acid]	0.1 to 1000
Cc1noc(C)c1-c1cnc2c(c1)c(-c1ccc(C(=O)O)cc1OC(F)(F)F)cn2C1(C)CCOCC1 [P-0385, 4-(5-(3,5-dimethylisoxazol-4-yl)-1-(4-methyltetrahydro-2H-pyran-4-yl)-1H-pyrrolo[2,3-b]pyridin-3-yl)-3-(trifluoromethoxy)benzoic acid]	0.1 to 1000
Cc1noc(C)c1-c1cnc2c(c1)c(-c1c(Cl)cc(C(=O)O)cc1OC(F)(F)F)cn2-c1cnc(C2CC2)nc1 [P-0386, 3-chloro-4-(1-(2-cyclopropylpyrimidin-5-yl)-5-(3,5-dimethylisoxazol-4-yl)-1H-pyrrolo[2,3-b]pyridin-3-yl)-5-(trifluoromethoxy)benzoic acid]	0.1 to 1000
Cc1noc(C)c1-c1cnc2c(c1)c(-c1ccc(C(=O)O)cc1OCC(F)F)cn2-c1cnc(C2CC2)nc1 [P-0387, 4-(1-(2-cyclopropylpyrimidin-5-yl)-5-(3,5-dimethylisoxazol-4-yl)-1H-pyrrolo[2,3-b]pyridin-3-yl)-3-(2,2-difluoroethoxy)benzoic acid]	0.1 to 1000
